# Laboratory results: ChEMBL document CHEMBL2385042, “Diterpenoids with diverse skeletons from the roots of Euphorbia micractina” (J Nat Prod, 2013)
# Activity calls are given as the source filed them. The rule behind the calls is not given here.
# Key:
# [1] = target: T1, Tyrosine-protein phosphatase non-receptor type 1 (Homo sapiens) (UniProt P18031); assay: Inhibition of human recombinant GST-tagged PTP1B using para-nitrophenyl phosphate as substrate assessed as release of para-nitrophenol at 10 uM after 10 mins by spectrophotometric analysis
# T1 sequence (whole entry): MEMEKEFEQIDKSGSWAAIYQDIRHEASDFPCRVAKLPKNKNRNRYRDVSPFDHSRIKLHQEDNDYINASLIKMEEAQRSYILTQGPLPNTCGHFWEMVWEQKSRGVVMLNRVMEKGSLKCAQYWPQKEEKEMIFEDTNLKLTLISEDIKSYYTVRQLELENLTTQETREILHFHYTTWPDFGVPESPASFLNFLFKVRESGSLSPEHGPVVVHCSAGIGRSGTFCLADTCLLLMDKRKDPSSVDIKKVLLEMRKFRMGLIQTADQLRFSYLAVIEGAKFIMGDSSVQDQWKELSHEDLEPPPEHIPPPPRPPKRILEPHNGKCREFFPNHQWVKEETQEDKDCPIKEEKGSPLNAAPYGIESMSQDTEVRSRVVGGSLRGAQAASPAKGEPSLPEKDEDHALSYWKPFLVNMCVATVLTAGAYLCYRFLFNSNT
# HCT-8 = assay: Cytotoxicity against human HCT8 cells assessed as cell viability at 10 uM after 96 hrs by MTT assay; type: functional, cell-based
# KETR3 = assay: Cytotoxicity against human Ketr3 cells assessed as cell viability at 10 uM after 96 hrs by MTT assay; type: functional, cell-based
# MCF7 = assay: Cytotoxicity against human MCF7 cells assessed as cell viability at 10 uM after 96 hrs by MTT assay; type: functional, cell-based
# Bel-7402 = assay: Cytotoxicity against human Bel7402 cells assessed as cell viability at 10 uM after 96 hrs by MTT assay; type: functional, cell-based
# A549 = assay: Cytotoxicity against human A549 cells assessed as cell viability at 10 uM after 96 hrs by MTT assay; type: functional, cell-based
# BGC-823 = assay: Cytotoxicity against human BGC823 cells assessed as cell viability at 10 uM after 96 hrs by MTT assay; type: functional, cell-based
# [2] = tested on: Human immunodeficiency virus 1; assay: Antiviral activity against HIV1 infected in human 293T cells assessed as inhibition of viral replication at 10 uM incubated for 15 mins prior to infection measured after 48 hrs by luciferase reporter gene assay; type: functional, organism-based
# [3] = tested on: Human immunodeficiency virus 1; assay: Antiviral activity against HIV1 infected in human 293T cells assessed as inhibition of viral replication incubated for 15 mins prior to infection measured after 48 hrs by luciferase reporter gene assay; type: functional, organism-based; conditions: Human immunodeficiency virus 1, HEK-293T
SMILES,inhibition [1],Activity (HCT-8),Activity (KETR3),Activity (MCF7),Activity (Bel-7402),Activity (A549),Activity (BGC-823),Activity [2],IC50 [3] [nM]
C[C@H]1C[C@]2(O)C(=O)[C@@]3(C)[C@H](O)[C@@H]4[C@H](CC[C@@]3(C)[C@H](O)[C@H]2[C@H]1OC(=O)c1ccccc1)C4(C)C,inactive,inactive,inactive,inactive,inactive,inactive,inactive,inactive,
CO[C@@H]1[C@@H]2[C@H](CC[C@@]3(C)[C@H](O)[C@H]4[C@@H](O)[C@@H](C)C[C@]4(OC(=O)/C=C/c4ccccc4)C(=O)[C@@]23C)C1(C)C,inactive,inactive,inactive,inactive,inactive,inactive,inactive,inactive,
C[C@H]1C[C@]2(O)C(=O)[C@@]3(C)[C@@H]4O[C@H]4C(C)(C)[C@@H](O)CC[C@@]3(C)[C@H](O)[C@H]2[C@H]1OC(=O)/C=C/c1ccccc1,inactive,inactive,inactive,inactive,inactive,inactive,inactive,inactive,
C[C@H]1C[C@]2(O)C(=O)[C@@]3(C)[C@@H]4O[C@H]4C(C)(C)[C@@H](O)CC[C@@]3(C)[C@H](O)[C@H]2[C@H]1OC(=O)c1ccccc1,inactive,inactive,inactive,inactive,inactive,inactive,inactive,inactive,
C[C@H]1C[C@]2(O)C(=O)[C@@]3(C)[C@H](O)[C@@H]4[C@H](CC[C@@]3(C)[C@H](O)[C@H]2[C@H]1OC(=O)/C=C/c1ccccc1)C4(C)C,inactive,inactive,inactive,inactive,inactive,inactive,inactive,inactive,
C[C@H]1C[C@]2(O)C(=O)[C@@]3(C)[C@@H]4[C@@H](O)C(C)(C)[C@H]4CC[C@@]3(C)[C@H](O)[C@H]2[C@H]1OC(=O)/C=C/c1ccccc1,inactive,inactive,inactive,inactive,inactive,inactive,inactive,inactive,
CCO[C@@H]1[C@@H]2[C@H](CC[C@@]3(C)[C@H](O)[C@H]4[C@@H](OC(=O)c5ccccc5)[C@@H](C)C[C@]4(O)C(=O)[C@@]13C)C2(C)C,inactive,inactive,inactive,inactive,inactive,inactive,inactive,inactive,
O=C1Nc2ccc(Cl)cc2[C@@](C#CC2CC2)(C(F)(F)F)O1 [EFAVIRENZ],,,,,,,,,60
CCO[C@@H]1[C@@H]2[C@H](CC[C@@]3(C)[C@H](O)[C@H]4[C@@H](OC(=O)/C=C/c5ccccc5)[C@@H](C)C[C@]4(O)C(=O)[C@@]13C)C2(C)C,inactive,inactive,inactive,inactive,inactive,inactive,inactive,inactive,
CO[C@@H]1[C@@H]2[C@H](CC[C@@]3(C)[C@H](O)[C@H]4[C@@H](O)[C@@H](C)C[C@]4(OC(=O)c4ccccc4)C(=O)[C@@]13C)C2(C)C,inactive,inactive,inactive,inactive,inactive,inactive,inactive,inactive,
C[C@H]1C[C@]2(O)C(=O)[C@@]3(C)[C@@H]4[C@@H](O)C(C)(C)[C@H]4CC[C@@]3(C)[C@H](O)[C@H]2[C@H]1OC(=O)c1ccccc1,inactive,inactive,inactive,inactive,inactive,inactive,inactive,inactive,
CO[C@@H]1[C@@H]2[C@H](CC[C@@]3(C)[C@H](O)[C@H]4[C@@H](OC(=O)/C=C/c5ccccc5)[C@@H](C)C[C@]4(O)C(=O)[C@@]13C)C2(C)C,inactive,inactive,inactive,inactive,inactive,inactive,inactive,inactive,
